This is an account of results in patent publication US9284283B2, “Macrocyclic compounds for modulating IL-17” (ENSEMBLE THERAPEUTICS CORPORATION, priority 2012, dated 2016).

Each structure is given as a SMILES string. pIC50: −log10 of the molar value.

Assay [1] addresses T1, recombinant human IL17a (binding to its receptor IL17R) (Homo sapiens, UniProt Q16552).
T1 construct: purchased R&D Systems 317-ILB (IL17a); 177-IR (IL17R/Fc)
T1 sequence (Q16552 20-155 limits assumed): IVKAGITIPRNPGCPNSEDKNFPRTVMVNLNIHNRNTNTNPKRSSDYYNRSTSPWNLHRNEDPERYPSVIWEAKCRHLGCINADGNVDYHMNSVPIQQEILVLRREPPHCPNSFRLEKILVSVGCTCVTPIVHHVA
Description: IL-17 competition ELISA I (IL17a coated, IL17R/Fc binding). The method in brief:
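Plates coated with 20 nM recombinant human IL17a received compound dilutions and 12 nM IL17R/Fc (final) for 30 min at room temperature. Bound receptor was detected with HRP anti-human Fc and TMB, read at 450 nm. IC50 came from a 4-parameter logistic fit between no-competitor and blank controls.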

In assay [2] the test system is IL-17A induced secretion of IL-6 in primary human RASF cells. Description: Inhibition of IL17A induced secretion of IL6 in human rheumatoid arthritis synovial fibroblast (RASF) cells. It is filed as cell-based. Particulars: Homo sapiens, Fibroblast. The method in brief: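 Primary RASF cells (passage 2-8) stimulated 20 h at 37 °C with rhIL-17A (30 ng/mL) pre-incubated 1 h with compound (final 0.03-25 μM, 0.25% DMSO). Supernatant IL-6 measured by ELISA, normalized to WST1 viability; triplicates.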

The target in assay [3] is T2, biotinylated human IL-17 (binding to IL17R/Fc) (Homo sapiens, UniProt Q16552).
T2 construct: purchased R&D Systems 317-ILB (IL-17, biotinylated); 177-IR (IL17R/Fc)
T2 sequence (Q16552 20-155 limits assumed): T1 sequence (Q16552 20-155 limits assumed)
Description: IL-17 competition ELISA II (captured IL17R/Fc, biotinylated IL-17). An outline of the steps: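 Anti-human IgG-coated plates captured IL17R/Fc (10 nM), then compound (5-fold dilutions from 1 μM) and biotinylated human IL-17 (20 nM stock) were added for 30 min at room temperature in PBST. Bound IL-17 detected by streptavidin-HRP/TMB at 450 nm. IC50 from 4-parameter logistic fit between no-competitor and blank controls.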

Take `COC(=O)[C@@H]1CCCCNC(=O)CCCNC(=O)[C@@H](Cc2ccc(NC(=O)[C@H](Cc3ccccc3F)NC(=O)Cc3ccccc3)cc2)NC(=O)CC2(CCCC2)CC(=O)N1` [Compound 106]: the pIC50 was 6.00 to 7.00 in assay [1] and less than 5.00 in assay [2].
Take `COC(=O)[C@@H]1CCCCNC(=O)CNC(=O)[C@@H](Cc2ccc(NC(=O)[C@H](Cc3ccccc3Cl)NC(=O)Cc3ccccc3)cc2)NC(=O)CC2(CCCC2)CC(=O)N1` [Compound 143]: the pIC50 in assay [1] is greater than 7.00; in assay [2], 5.00 to 6.00.
As to `COC(=O)[C@@H]1CCCCNC(=O)CNC(=O)[C@@H](Cc2ccc(NC(=O)[C@H](Cc3ccccc3Cl)NC(=O)c3ccccc3)cc2)NC(=O)CC2(CCCC2)CC(=O)N1` [Compound 144], the pIC50 is greater than 7.00 in assay [1] and 5.00 to 6.00 in assay [2].
Consider `O=C1CNC(=O)[C@@H](Cc2ccc(NC(=O)[C@H](Cc3ccccc3Cl)NC(=O)Cc3ccccc3)cc2)NC(=O)CC2(CCCC2)CC(=O)NCCCCCN1` [Compound 159], for which the pIC50 in assay [1] is greater than 7.00; in assay [2], 5.00 to 6.00.
On the same counts, the results for `O=C1CNC(=O)[C@@H](Cc2ccc(NC(=O)[C@H](Cc3ccc(Cl)cc3Cl)NC(=O)Cc3ccccc3)cc2)NC(=O)CC2(CCCC2)CC(=O)NCCCCCN1` [Compound 185] are greater than 7.00 and 5.00 to 6.00.
As to `O=C1CNC(=O)[C@@H](Cc2ccc(NC(=O)[C@@H](NC(=O)Cc3ccccc3)C3CCCCC3)cc2)NC(=O)CC2(CCCC2)CC(=O)NCCCCCN1` [Compound 186], the values for the pIC50 in assay [1], in assay [3] and in assay [2] were greater than 7.00, greater than 7.00 and 5.00 to 6.00, respectively.
`O=C1CNC(=O)[C@@H](Cc2ccc(NC(=O)[C@H](Cc3ccc(Cl)cc3Cl)NC(=O)Cc3ccc(O)cc3)cc2)NC(=O)CC2(CCCC2)CC(=O)NCCCCCN1` [Compound 191]: the negative logarithm of the IC50 (pIC50) was greater than 7.00 in assay [1] and 5.00 to 6.00 in assay [2].
Consider `O=C1CNC(=O)[C@@H](Cc2ccc(NC(=O)[C@H](Cc3ccccc3Cl)NC(=O)c3cccnc3)cc2)NC(=O)CC2(CCCC2)CC(=O)NCCCCCN1` [Compound 194], for which the pIC50 in assay [1] is greater than 7.00; in assay [3], greater than 7.00; in assay [2] it was 6.00 to 7.00.
With `O=C1CNC(=O)[C@@H](Cc2ccc(NC(=O)[C@H](Cc3ccccc3Cl)NC(=O)Cc3ccccn3)cc2)NC(=O)CC2(CCCC2)CC(=O)NCCCCCN1` [Compound 226], the pIC50 is greater than 7.00 in assay [1], greater than 7.00 in assay [3] and 5.00 to 6.00 in assay [2].
